Experimental data as given in patent US7303881B2, “Antigen delivery compositions and methods of use” (priority 2004, dated 2007).

Tests used:
DC 2.4 cells = assay: Expression of CD80 on DC 2.4 cells, cationic lipid head group and chain length; type: cell-based
Text: Both hydrophilic head and the lipophilic tail of the lipids have significant effect on this ability. […] The effect of the hydrocarbon tail region of the lipids on the DC cell stimulation also was systematically investigated (FIG. 8).

TC-1 cells = assay: Metastatic tumor model (i.p. TC-1 cells) after vaccination, survival and TC-1 rechallenge; type: in vivo, mice; details: 10 μg E7 peptide in PBS days 0 and 5; 1×10^6 TC-1 cells day 10
tumor = assay: In vivo tumor therapy with LPD/E7 and formulations of LPD components; design: species or system mice; details: 20 days after treatment; tumor injected 6 days before onset of treatment
Text: FIG. 9. Tumor growth kinetics on mice treated with LPD/E7 and other different formulations.
It is speculated that by condensing DNA, protamine helped to bring DNA inside the liposomes. E7 peptide was thought to bind to DNA via electrostatic interaction (Dileo et al., 2003). […] On the other hand, E7might only be loosely bound in the LD/E7 particles.

[1] = tested on: EL4 cells pulsed with E7 peptide; assay: Chromium release CTL assay after LPD/E7 vaccination; type: in vivo, C57BL/6 mice; details: 20 μg E7 peptide, IV and SC, days 0 and 5
Procedure: For comparison, mice were injected with 20 μg E7 peptide in PBS or encapsulated in SL liposomes. Five days after the final vaccination, splenocytes were collected, and used as effector cells in a chromium release assay. Consistent with previous reports, antigen containing SL liposomes induced significant levels of CTL activity (61% specific lysis) following SC injection only.
Cytolytic lymphocyte activity was measured using standard ^51Cr-release assays. Splenocytes were collected and cultured in RPMI supplemented with 10% FBS, 50 U/ml penicillin/streptomycin, 2 mM L-glutamine, 1 mM sodium pyruvate, 2 mM nonessential amino acids, 40 U/ml IL2, and 200 ng/ml MHC class I restricted E7 peptide for 4 days. Effector cells were plated into 96-well plates at various effector-to-target (E:T) cell ratios. Targets used were either EL4 cells pulsed with E7 peptide or non-pulsed EL4 cells. Targets were labeled with 200 μCi ^51Cr (NEN Life Sciences, Boston Mass.) for 18 h at 37° C. Before mixing with effectors, the targets were washed two times with medium, and resuspended at 2×10^5 cells/ml. […] Specific lysis was calculated using the following equation: % specific lysis=(experimental release−spontaneous release)/(maximum release−spontaneous release)×100. […]

Compound: CCCCCCCC/C=C\CCCCCCCC(=O)OC[C@@H](COP(=O)(OCC)OCC[N+](C)(C)C)OC(=O)CCCCCCC/C=C\CCCCCCCC (stereo partly drawn) [DOEPC-18:1, 1,2-dioleoyl-sn-glycero-3-ethylphosphocholine]
- Stimulation of CD 80 expression (DC 2.4 cells): more potent

Compound: E7 peptide: MHC class I restricted peptide from the HPV 16 E7 protein (aa 49 to 57, RAHYNIVTF), given in PBS
- mice surviving beyond 20 days after TC-1 cell injection (TC-1 cells): 20%
- Tumor growth after treatment (tumor): kept growing rapidly
- CTL activity [1]: no CTL induction

Compound: CCCCCCCCCCCCCC(=O)OCC(COP(=O)(OCC)OCC[N+](C)(C)C)OC(=O)CCCCCCCCCCCCC (stereo not drawn) [DMEPC-14:0, 1,2-dimyristoyl-sn-glycero-3-ethylphosphocholine]
- Stimulation of CD 80 expression (DC 2.4 cells): more potent

Compound: CCCCCCCCCCCC(=O)OC[C@H](COP(=O)(OCC)OCC[N+](C)(C)C)OC(=O)CCCCCCCCCCC (stereo partly drawn) [DLEPC-12:0, 1,2-dilauroyl-sn-glycero-3-ethylphosphocholine]
- Stimulation of CD 80 expression (DC 2.4 cells): more potent

Compound: CCCCCCCCCCCCOS(=O)(=O)[O-].[Na+] [SDS, sodium dodecyl sulfate]
- Stimulation of CD 80 expression (DC 2.4 cells): could not activate

Compound: CCCCCCCCCCCCCCCC(=O)OCC(C[N+](C)(C)C)OC(=O)CCCCCCCCCCCCCCC (stereo not drawn) [DPTAP-16:0, 1,2-palmitoyl-3-trimethylammonium propane]
- Stimulation of CD 80 expression (DC 2.4 cells): much lower expression of CD80

Compound: CCCCCCCCCCCCCCCCCC(=O)OCC(C[N+](C)(C)C)OC(=O)CCCCCCCCCCCCCCCCC (stereo not drawn) [DSTAP-18:0, 1,2-distearoyl-3-trimethylammonium propane]
- Stimulation of CD 80 expression (DC 2.4 cells): much lower expression of CD80
